In patent US9113629B2, “4-amino-6-(4-substituted-phenyl)-picolinates and 6-amino-2-(4-substituted-phenyl)-pyrimidine-4-carboxylates and their use as herbicides” (DOW AGROSCIENCES LLC, priority 2013, dated 2015):
Read-outs that look alike come from different tables or passages of the source.

What was measured:
Format in all cases: in vivo
[1] = test system: SETFA: giant foxtail (Setaria faberi); assay: Pre-emergent Test I herbicidal activity; settings: pre-emergence, 336 h, read-out: Visual Growth Reduction (%) 14 Days After Application, SETFA; for pest or weed control at 3840 g/ha: 3.84 kg ai/ha; for pest or weed control at 4040 g/ha: 4.04 kg ai/ha
Protocol: (§1) Pre-emergent Test I Seeds of test species were planted into round plastic pots (5-inch diameter) containing sandy loam soil. After planting, all pots were sub-irrigated 16 h prior to compound application. Compounds were dissolved in a 97:3 v/v (volume/volume) mixture of acetone and dimethyl sulfoxide (DMSO) and diluted to the appropriate concentration in a final application solution containing water, acetone, isopropanol, DMSO and Agri-dex (crop oil concentrate) in a 59:23:15:1.0:1.5 v/v ratio and 0.02% w/v (weight/volume) of Triton X-155 to obtain the spray solution containing the highest application rate. Additional application rates were obtained by serial dilution of the high rate solution with the above application solution. Formulated compound (2.7 mL) was applied pipetted evenly over the soil surface followed by incorporation with water (15 mL). Following treatment, pots were returned to the greenhouse for the duration of the experiment. The greenhouse was programmed for an approximate 15 h photoperiod which was maintained at about 23-29° C. during the day and 22-28° C. during the night. Nutrients and water were added on a regular basis through surface irrigation and supplemental lighting was provided with overhead metal halide 1000-Watt lamps as necessary. Herbicidal effect ratings were obtained 14 days after treatment. All evaluations were made relative to appropriate controls on a scale of 0 to 100 where 0 represents no herbicidal effect and 100 represents plant death or lack of emergence from the soil.

[2] = test system: AMARE: redroot pigwseed (Amaranthus retroflexus); assay: Pre-emergent Test I herbicidal activity; settings: pre-emergence, 336 h, read-out: Visual Growth Reduction (%) 14 Days After Application, AMARE; for pest or weed control at 3840 g/ha: 3.84 kg ai/ha; for pest or weed control at 4040 g/ha: 4.04 kg ai/ha
Protocol: as §1

[3] = test system: IPOHE: ivyleaf morningglory (Ipomoea hederecea); assay: Pre-emergent Test I herbicidal activity; settings: pre-emergence, 336 h, read-out: Visual Growth Reduction (%) 14 Days After Application, IPOHE; for pest or weed control at 3840 g/ha: 3.84 kg ai/ha; for pest or weed control at 4040 g/ha: 4.04 kg ai/ha
Protocol: as §1

LAMSS = assay: Post-emergent Test III, herbicidal activity in wheat and barley; settings: for GR50 LAMSS / GR80 LAMSS: probit analysis; for pest or weed control at 35 g/ha / pest or weed control at 70 g/ha / pest or weed control at 140 g/ha: post-emergence, 504 h, read-out: Visual Growth Reduction (%) 21 Days After Application LAMSS; for pest or weed control at 35 g/ha: 35 g ai/ha; for pest or weed control at 70 g/ha: 70 g ai/ha; for pest or weed control at 140 g/ha: 140 g ai/ha
Procedure, shortened: (§2)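 Plants at the second to third true-leaf stage, grown in a greenhouse at about 18/17 °C with a 14 h photoperiod, were sprayed post-emergence at 187 L/ha with the high rate and ½× to 1/16× serial dilutions in an acetone/DMSO/crop-oil/surfactant carrier. Injury was rated visually at 21 d on a 0–100% scale, and GR20–GR90 were derived by probit analysis.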

[4] = test system: VERPE: bird's-eye speedwell (veronica persica); assay: as above; settings: for GR50 VERPE / GR80 VERPE: probit analysis; for pest or weed control at 35 g/ha / pest or weed control at 70 g/ha / pest or weed control at 140 g/ha: Veronica persica, post-emergence, 504 h, read-out: Visual Growth Reduction (%) 21 Days After Application VERPE; for pest or weed control at 35 g/ha: 35 g ai/ha; for pest or weed control at 70 g/ha: 70 g ai/ha; for pest or weed control at 140 g/ha: 140 g ai/ha
Procedure, shortened: as §2

[5] = test system: PAPRH: common poppy (Papaver rhoeas); assay: as above; settings: for pest or weed control at 35 g/ha / pest or weed control at 70 g/ha / pest or weed control at 140 g/ha: Papaver rhoeas, post-emergence, 504 h, read-out: Visual Growth Reduction (%) 21 Days After Application PAPRH; for pest or weed control at 35 g/ha: 35 g ai/ha; for pest or weed control at 70 g/ha: 70 g ai/ha; for pest or weed control at 140 g/ha: 140 g ai/ha; for GR50 PAPRH / GR80 PAPRH: probit analysis
Procedure, shortened: as §2

[6] = test system: ALOMY: black-grass (Alopecurus myosuroides); assay: as above; settings: for pest or weed control at 35 g/ha: 35 g ai/ha; for pest or weed control at 70 g/ha: 70 g ai/ha; for GR50 ALOMY / GR80 ALOMY: probit analysis, 21 days after application; for GR50 ALOMY: dose for growth reduction of 50 percent; for GR80 ALOMY: dose for growth reduction of 80 percent
Procedure, shortened: as §2

[7] = test system: BROTE: downy brome (Bromus tectorum); assay: as above; settings: for pest or weed control at 35 g/ha: 35 g ai/ha; for pest or weed control at 70 g/ha: 70 g ai/ha; for GR50 BROTE / GR80 BROTE: probit analysis, 21 days after application; for GR50 BROTE: dose for growth reduction of 50 percent; for GR80 BROTE: dose for growth reduction of 80 percent
Procedure, shortened: as §2

[8] = Table 8, dose for 50 percent growth reduction, 21 d
[9] = Table 8, dose for 80 percent growth reduction, 21 d
[10] = Alopecurus myosuroides, post-emergence, 504 h, read-out: Visual Growth Reduction (%) 21 Days After Application ALOMY
[11] = dose for growth reduction of 50 percent, 21 days after application
[12] = dose for growth reduction of 80 percent, 21 days after application
[13] = Bromus tectorum, post-emergence, 504 h, read-out: Visual Growth Reduction (%) 21 Days After Application BROTE

COC(=O)c1nc(-c2ccc(C#N)cc2F)cc(N)c1Cl [Compound 16]
pest or weed control at 3840 g/ha [1]: 0 to 29%
pest or weed control at 3840 g/ha [2]: 95 to 100%
pest or weed control at 3840 g/ha [3]: 95 to 100%

COC(=O)c1nc(-c2ccc(C#N)c(F)c2)c(F)c(N)c1Cl [Compound 135, methyl 4-amino-3-chloro-6-(4-cyano-3-fluorophenyl)-5-fluoropicolinate]
GR50 LAMSS (LAMSS; [8]): 1 g ai/ha
GR80 LAMSS (LAMSS; [9]): 19 g ai/ha
pest or weed control at 35 g/ha (LAMSS; Table 8, post-emergent, 21 d): 75 to 84%
pest or weed control at 70 g/ha (LAMSS; Table 8, post-emergent, 21 d): 85 to 94%
pest or weed control at 140 g/ha (LAMSS; Table 8, post-emergent, 21 d): 85 to 94%
GR50 VERPE [4, 8]: 24 g ai/ha
GR80 VERPE [4, 9]: 78 g ai/ha
pest or weed control at 35 g/ha ([4]; Table 8, post-emergent, 21 d): 60 to 74%
pest or weed control at 70 g/ha ([4]; Table 8, post-emergent, 21 d): 75 to 84%
pest or weed control at 140 g/ha ([4]; Table 8, post-emergent, 21 d): 85 to 94%
pest or weed control at 35 g/ha ([5]; Table 8, post-emergent, 21 d): 85 to 94%
pest or weed control at 70 g/ha ([5]; Table 8, post-emergent, 21 d): 85 to 94%
pest or weed control at 140 g/ha ([5]; Table 8, post-emergent, 21 d): 95 to 100%
GR50 PAPRH [5, 8]: 1 g ai/ha
GR80 PAPRH [5, 9]: 1 g ai/ha
pest or weed control at 4040 g/ha [1]: 30 to 44%
pest or weed control at 4040 g/ha [2]: 95 to 100%
pest or weed control at 4040 g/ha [3]: 95 to 100%

COC(=O)c1nc(-c2ccc(C#N)cc2)c(F)c(N)c1Cl [Compound 142]
pest or weed control at 35 g/ha [6, 10]: 0 to 29%
pest or weed control at 70 g/ha [6, 10]: 0 to 29%
pest or weed control at 140 g/ha ([6]; Alopecurus myosuroides, post-emergence, 504 h, 140 g ai/ha, read-out: Visual Growth Reduction (%) 21 Days After Application ALOMY): 0 to 29%
GR50 ALOMY [6]: >140 g ai/ha
GR80 ALOMY [6]: >140 g ai/ha
pest or weed control at 35 g/ha (LAMSS): 85 to 94%
pest or weed control at 70 g/ha (LAMSS): 85 to 94%
pest or weed control at 140 g/ha (LAMSS): 85 to 94%
GR50 LAMSS (LAMSS; [11]): 0 g ai/ha
GR80 LAMSS (LAMSS; [12]): 5 g ai/ha
pest or weed control at 35 g/ha [7, 13]: 0 to 29%
pest or weed control at 70 g/ha [7, 13]: 0 to 29%
pest or weed control at 140 g/ha ([7]; Bromus tectorum, post-emergence, 504 h, 140 g ai/ha, read-out: Visual Growth Reduction (%) 21 Days After Application BROTE): 0 to 29%
GR50 BROTE [7]: >140 g ai/ha
GR80 BROTE [7]: >140 g ai/ha
pest or weed control at 35 g/ha [4]: 75 to 84%
pest or weed control at 70 g/ha [4]: 85 to 94%
pest or weed control at 140 g/ha [4]: 85 to 94%
GR50 VERPE [4, 11]: 5 g ai/ha
GR80 VERPE [4, 12]: 40 g ai/ha
pest or weed control at 35 g/ha [5]: 85 to 94%
pest or weed control at 70 g/ha [5]: 95 to 100%
pest or weed control at 140 g/ha [5]: 95 to 100%
GR50 PAPRH [5, 11]: 1 g ai/ha
GR80 PAPRH [5, 12]: 4 g ai/ha
pest or weed control at 3840 g/ha [2]: 95 to 100%
pest or weed control at 3840 g/ha [3]: 95 to 100%

N#Cc1ccc(-c2nc(C(=O)O)c(Cl)c(N)c2F)cc1F [Compound 156]
pest or weed control at 4040 g/ha [1]: 95 to 100%
pest or weed control at 4040 g/ha [2]: 95 to 100%
pest or weed control at 4040 g/ha [3]: 95 to 100%

COC(=O)c1nc(-c2ccccc2)c(F)c(N)c1Cl [Compound 181]
pest or weed control at 1760 g/ha ([1]; 1.76 kg ai/ha): 75 to 84%
pest or weed control at 1760 g/ha ([2]; 1.76 kg ai/ha): 95 to 100%
pest or weed control at 1760 g/ha ([3]; 1.76 kg ai/ha): 85 to 94%

COC(=O)c1nc(-c2ccc(C(F)F)c(F)c2)cc(N)c1Cl [Compound 196]
pest or weed control at 3840 g/ha [1]: 95 to 100%
pest or weed control at 3840 g/ha [2]: 95 to 100%
pest or weed control at 3840 g/ha [3]: 95 to 100%

COC(=O)c1nc(-c2ccc(C(F)F)cc2)c(F)c(N)c1Cl [Compound 209]
pest or weed control at 35 g/ha [6, 10]: 0 to 29%
pest or weed control at 70 g/ha [6, 10]: 0 to 29%
GR50 ALOMY [6]: >140 g ai/ha
GR80 ALOMY [6]: >140 g ai/ha
pest or weed control at 35 g/ha (LAMSS): 85 to 94%
pest or weed control at 70 g/ha (LAMSS): 85 to 94%
GR50 LAMSS (LAMSS; [11]): 7 g ai/ha
GR80 LAMSS (LAMSS; [12]): 29 g ai/ha
pest or weed control at 35 g/ha [7, 13]: 0 to 29%
pest or weed control at 70 g/ha [7, 13]: 30 to 44%
GR50 BROTE [7]: 88 g ai/ha
GR80 BROTE [7]: >140 g ai/ha
pest or weed control at 4000 g/ha ([1]; 4 kg ai/ha): 95 to 100%
pest or weed control at 4000 g/ha ([2]; 4 kg ai/ha): 95 to 100%
pest or weed control at 4000 g/ha ([3]; 4 kg ai/ha): 95 to 100%

C=Cc1c(C(=O)OC)nc(-c2ccc(Cl)c(F)c2)c(F)c1N [Compound 215, methyl 4-amino-6-(4-chloro-3-fluorophenyl)-5-fluoro-3-vinylpicolinate]
pest or weed control at 3960 g/ha ([1]; 3.96 kg ai/ha): 85 to 94%
pest or weed control at 3960 g/ha ([2]; 3.96 kg ai/ha): 95 to 100%
pest or weed control at 3960 g/ha ([3]; 3.96 kg ai/ha): 95 to 100%
